Values of other authors, collected in US20160215053A1, “CXCL12 (CHEMOKINE (C-X-C MOTIF) LIGAND 12) AND IGFBP2 INHIBITORS FOR THE APPLICATION IN THE TREATMENT OF DIABETES MELLITUS ASSOCIATED PANCREATIC CANCER” (priority 2013, published 2016).
Entries after “also recorded” stand apart in the source; their conditions may differ. Like-named read-outs stand apart in the source and are kept apart here. Where no end group is shown, it is not given here.

Key:
PSC = conditions: literature references 19-31
BxPC3 cells = conditions: reference 40

| Molecule | Effect on PSC (PSC) | also measured |
| --- | --- | --- |
| CC=O [Acetaldehide] | increased αSMA expression | – |
| TNFα | increased αSMA expression | – |
| CCO [Ethanol] | type-1 collagen production; also recorded: increased αSMA expression | – |
| Galektin-1: factor that induces PSC activation/trans-differentiation | increased proliferation | – |
| Nc1ccn([C@@H]2O[C@H](CO)[C@@H](O)C2(F)F)c(=O)n1 [gemcitabine] | – | Proportion of cancer cells undergoing gemcitabine induced apoptosis (BxPC3 cells; BxPC3 cells treated with hPSC-CM): 9.4%; Proportion of cancer cells undergoing gemcitabine induced apoptosis (BxPC3 cells; BxPC3 cells, without hPSC-CM treatment): 38.9% |
| CCCCC[C@H](O)/C=C/[C@H]1[C@H](O)CC(=O)[C@@H]1C/C=C\CCCC(=O)O [Prosztaglandin E2] | increased proliferation, migration | – |
| TGFα: factor that induces PSC activation/trans-differentiation | increased proliferation, migration | – |
| PDGF | – | Effect on PSC (PSC; cell proliferation): increased proliferation; Effect on PSC (PSC; fibronectin synthesis): increased FN synthesis |
| gasztrin: factor that induces PSC activation/trans-differentiation (QGPWLEEEEEAYGWMDF; ends and bridges not checked; UniProt P01350 76-92, looked up) | – | Effect on PSC (PSC; cell proliferation): decreased proliferation; Effect on PSC (PSC; collagen synthesis): increased collagen synthesis, |
| bFGF: factor that induces PSC activation/trans-differentiation | increased proliferation | – |
| Activin A: factor that induces PSC activation/trans-differentiation (protein, UniProt P08476 311-426, looked up, Inhibin beta A chain) Inhibin beta A chain: GLECDGKVNICCKKQFFVSFKDIGWNDWIIAPSGYHANYCEGECPSHIAGTSGSSLSFHSTVINHYRMRGHSPFANLKSCCVPTKLRPMSMLYYDDGQNIIKKDIQNMIVEECGCS | increased αSMA expression | – |
| IL-10: factor that induces PSC activation/trans-differentiation (protein, UniProt P22301 19-178, looked up) Interleukin-10: SPGQGTQSENSCTHFPGNLPNMLRDLRDAFSRVKTFFQMKDQLDNLLLKESLLEDFKGYLGCQALSEMIQFYLEEVMPQAENQDPDIKAHVNSLGENLKTLRLRLRRCHRFLPCENKSKAVEQVKNAFNKLQEKGIYKAMSEFDIFINYIEAYMTMKIRN | increased type-1 collagen production | – |
| CCK: factor that induces PSC activation/trans-differentiation (peptide, UniProt P06307 21-115, looked up, Cholecystokinin) Cholecystokinin: QPVPPADPAGSGLQRAEEAPRRQLRVSQRTDGESRAHLGALLARYIQQARKAPSGRMSIVKNLQNLDPSHRISDRDYMGWMDFGRRSAEEYEYPS | – | Effect on PSC (PSC; cell proliferation): decreased proliferation; Effect on PSC (PSC; collagen synthesis): increased collagen synthesis, |
